# Assay results: US4988517A, “Method and composition for inhibiting colon carcinogenesis” (American Health Foundation, priority 1988, dated 1991)
# Entries after “also recorded” stand apart in the source; their conditions may differ.
# Columns and labels:
# [1] = system: azoxymethane-induced ear duct tumors; assay: AOM-induced ear duct tumor incidence; type: in vivo, male F344 rats; details: 25 ppm in diet; AOM treated
# Excerpt: (§1) Experimental Procedure. Male F344 rats received at weaning were quarantined for 10 days and given access to AIN-76A semipurified diet (control diet). They were then be randomly allocated by weight to one of three dietary groups (control diet and 25 ppm BSC and 25 ppm benzylthiocyanate ("BTC") diets). […] Therefore one of our goals was to compare BSC with its sulfur analog BTC. Each dietary group was divided into AOM-treated (27 animals per subgroup) and vehicle-treated (12 animals per subgroup) subgroups and housed in plastic cages with filter tops in the animal holding room under controlled environmental conditions.
# (§2) Beginning at 5 wk of age, groups of rats fed the control diet were transferred to diets containing 25 ppm BSC or 25 ppm BTC. At 7 wk of age, the animals in each group, except the vehicle-treated controls, received two weekly s.c. injections of AOM at a dose level of 15 mg/kg body weight/wk. Vehicle controls were treated with an equal volume of normal saline. One wk after AOM or saline treatment, animals receiving the BSC and BTC diets were transferred to the control diets and continued on this diet until the termination of the experiment. The 1-wk delay before transferring to control diet was to ensure complete metabolism and excretion of the carcinogen. The animals receiving the control diet continued on the same diet. The experiment was terminated 34 wk after the last AOM injection.
# Both AOM-and vehicle-treated animals were sacrificed by CO2 euthanasia. Following laparotomy, the entire stomach, small intestine, and large intestine were resected and opened longitudinally, and the contents flushed with normal saline. The location, number, and size of the colon and small intestinal tumors were noted grossly under the dissection microscope. All other organs, including liver and kidneys, were also examined grossly for tumors. […]
# (§3) Statistical Analysis. The data on tumor incidence were analyzed statistically by the x^2 method and Fischer's exact probability test, and tumor multiplicity was analyzed by Student's t test. Biochemical results were analyzed by Student's t test.
# LD50 in rats = details: rat, in vivo
# Excerpt: (§4) The instant invention may open new approaches to the development of effective and less toxic novel selenium-containing chemopreventive agents. For example, although is too early to determine definitively the optimum dose which will be suitable for human use, we can estimate a dose based on the LD50 of BSC in rats (lethal dose at which 50% of the rats die). […] An order of magnitude of ten (10) times less than the LD50 may be appropriate for humans.
# [2] = General toxicity observation in rats fed the diets; type: in vivo, male F344 rats; details: 25 ppm in diet
# Excerpt: as §1, §2
# (§5) Body weights were recorded weekly until the animals reach 16 wk of age and then every 4 wk. Six vehicle-treated animals randomly chosen from each dietary group while they were consuming experimental and control diets were used for tissue and blood plasma glutathione peroxidase analysis.
# [3] = system: azoxymethane-induced small intestinal tumors; assay: AOM-induced small intestinal tumor incidence and multiplicity; type: in vivo, male F344 rats
# Excerpt: as §1, §2
# (§6) Both AOM-and vehicle-treated animals were sacrificed by CO2 euthanasia. Following laparotomy, the entire stomach, small intestine, and large intestine were resected and opened longitudinally, and the contents flushed with normal saline. The location, number, and size of the colon and small intestinal tumors were noted grossly under the dissection microscope. All other organs, including liver and kidneys, were also examined grossly for tumors. Tissues were fixed in 10% buffered formalin, embedded in paraffin blocks, and processed by routine histological methods with the use of eosin and hematoxylin stains.
# as §3
# (§7) Using the above-identified procedures, a study was made of the effect of feeding benzylselenocyanate and its sulfur analogue, benzylthiocyanate, two (2) weeks before, during and until one (1) week after carcinogen administration (initiation phase) on intestinal carcinogenesis induced by azoxymethane (CAS: 25843-45-2) in male F344 rats.
# [4] = system: azoxymethane-induced metastasis; assay: AOM-induced metastasis; type: in vivo, male F344 rats
# Excerpt: as §1, §2, §6
# [5] = system: selenium-dependent glutathione peroxidase; assay: Selenium-dependent glutathione peroxidase activity in tissues of rats fed the diets; type: in vivo, male F344 rats
# Method: as §5
# Biochemical Determination. For the determination of tissue and blood plasma glutathione peroxidase activity, 6 vehicle-treated animals from each dietary group, while the animals were on experimental and control diets, were used. Before sacrificing the animals, blood was obtained under ether anesthesia by cardiac puncture with a syringe. They were then decapitated,and liver, kidneys, small intestine, and colon were rapidly removed. The liver was perfused with ice-cold normal saline. The small intestine and colon were slit open longitudinally and freed from all the contents, and the mucosa was scraped with a microscope glass slide. The liver and kidneys were trimmed free of connective tissue, minced with scissors, and homogenized for 10 s in 3 volumes of buffer, pH 7.3 (0.25 sucrose-10 mM EDTA-50 mM potassium phosphate) using a Brinkman Polytron at low speed. The colonic and small intestinal mucosal scrapings were immediately placed into 3 volumes of the same buffer and homogenized similarly. The homogenates were centrifuged in a Sorvall RC-2B centrifuge at 10,000×g, 4° C., for 20 min. The supernatant was centrifuged in a Beckman Ultracentrifuge at 100,000×g, 4° C., for 1 h. The resulting cytosol fraction was used for determination of glutathione peroxidase activity and protein.
# Glutathione peroxidase activity was determined spectrophotometrically according to a modification of the enzyme-coupled assay procedure of Paglia and Valentine. The reaction mixture consisted of 50 mM potassium phosphate buffer (pH 7.0), 1 mM EDTA, 0.2 mM NADPH, 1 enzyme unit/ml oxidized glutathione-reductase, 1 mM glutathione, and 1.5 mM cumene hydroperoxide in a total volume of 1 ml. The cytosol was added to the above mixture and allowed to incubate 5 min. at room temperature. Total glutathione peroxide was measured with cumene hydroperoxide as a substrate. Selenium-dependent glutathione peroxide was measured with tert-butyl hydroperoxide. The reaction was started with the addition of substrate solution. Absorbance was measured at 340 nm, and activity was measured from the slope of the lines as mol NADPH oxidized/min/mg protein. Blank reactions without cytosol were run simultaneously. Protein concentration in the cytosol fraction was measured by the method of Lowry et al. with bovine serum albumin as standard.
# as §3
# [6] = Body weights of male F344 rats fed the experimental diets; type: in vivo; details: for Body wt, Initial (Wk 0) / Body wt, wk 4 / Body wt, wk 8 / Body wt, wk 16 / Body wt, wk 22 / Body wt, wk 30 / Body wt, wk 37 (at termination): 25 ppm in diet, Mean ± SD
# Excerpt: as §1, §2, §5
# [7] = system: azoxymethane-induced colon tumors; assay: AOM-induced colon tumor incidence and multiplicity (initiation phase feeding); type: in vivo, male F344 rats
# Excerpt: as §1, §2, §6, §3, §7
# [8] = system: non-selenium-dependent glutathione peroxidase; assay: Non-selenium-dependent glutathione peroxidase activity in tissues of rats fed the diets; type: in vivo, male F344 rats; details: among the dietary groups
# Method: as §5
# Biochemical Determination. For the determination of tissue and blood plasma glutathione peroxidase activity, 6 vehicle-treated animals from each dietary group, while the animals were on experimental and control diets, were used. Before sacrificing the animals, blood was obtained under ether anesthesia by cardiac puncture with a syringe. They were then decapitated,and liver, kidneys, small intestine, and colon were rapidly removed. The liver was perfused with ice-cold normal saline. […]
# Glutathione peroxidase activity was determined spectrophotometrically according to a modification of the enzyme-coupled assay procedure of Paglia and Valentine. […] Total glutathione peroxide was measured with cumene hydroperoxide as a substrate. Selenium-dependent glutathione peroxide was measured with tert-butyl hydroperoxide. […] Absorbance was measured at 340 nm, and activity was measured from the slope of the lines as mol NADPH oxidized/min/mg protein. […] Protein concentration in the cytosol fraction was measured by the method of Lowry et al. with bovine serum albumin as standard.
# [9] = system: benzo(a) pyrene-induced forestomach tumors; details: mice; cited from earlier work
# [10] = LD50 in humans, extrapolated from rats; design: unit not given here; details: extrapolated: 125×70^0.75
# Excerpt: as §4
# [11] = system: azoxymethane ("AOM")-induced colon, kidney, and hepatocarcinogenesis; details: 50 ppm in semipurified high fat diet, 2 wk before, during, 1 wk after carcinogen, liver; cited from earlier work
# [12] = 25 ppm in diet 2 wk before to 1 wk after AOM
# [13] = 25 ppm in diet, 27 (BSC) or 26 (BTC) animals/group
# [14] = 25 ppm in diet 5 wk, Mean ± SE (n = 6)
smiles,measurement,setting,value
"N#C[Se]Cc1ccccc1 [BSC, benzylselenocyanate]",% of animals with ear duct tumors,[1],7 % of animals
same,LD50,LD50 in rats,125 mg/kg
same,Evidence of toxicity in animals fed the diet,[2],no evidence of toxicity
same,"Small intestinal tumor incidence, Adenocarcinoma",[3]; [12],15 % of animals with tumors
same,"Small intestinal tumor incidence, Adenoma",[3]; [12],4 % of animals with tumors
same,"Small intestinal tumor incidence, Total",[3]; [12],19 % of animals with tumors
same,"Number of animals with small intestinal tumors, Adenocarcinoma",[3]; [13],4 number of animals
same,"Number of animals with small intestinal tumors, Adenoma",[3]; [13],1 number of animals
same,"Number of animals with small intestinal tumors, Total",[3]; [13],5 number of animals
same,"Small intestinal tumor multiplicity, Adenocarcinoma","[3]; 25 ppm in diet, Mean ± SD",0.15 0.3 no. of tumors/animal
same,"Small intestinal tumor multiplicity, Adenoma","[3]; 25 ppm in diet, Mean ± SD",0.04 0.2 no. of tumors/animal
same,"Small intestinal tumor multiplicity, Total","[3]; 25 ppm in diet, Mean ± SD",0.19 0.3 no. of tumors/animal
same,Incidence of small intestinal adenocarcinomas (in words),[3]; differences among groups not significant,slightly reduced the incidence of small intestinal adenocarcinomas
same,Inhibition of AOM-induced tumors in the small intestine (in words),"[3]; rat, in vivo","to a certain extent, in the small intestine"
same,"Small intestinal tumor multiplicity, total (in words)",[3]; vs BTC diet and control diet,significantly inhibited in animals fed the BSC diet compared to those fed the BTC diet and control diet
same,Multiplicity of small intestinal adenocarcinomas (in words),[3]; vs control diet,significant inhibition in the multiplicity of small intestinal adenocarcinomas; also recorded: significantly inhibits
same,No. of animals with metastasis,"[4]; 25 ppm in diet, AOM treated",0 No. of animals
same,AOM-induced metastasis (in words),[4]; several organs,inhibits AOM-induced metastasis in several organs; also recorded: none of the animals in BSC and BTC diet groups developed metastasis
same,"Selenium-dependent glutathione peroxidase activity, Kidney",[5]; [14],1.70 0.29 μmol NADPH oxidized/min/mg protein
same,"Selenium-dependent glutathione peroxidase activity, Liver",[5]; [14],1.88 0.60 μmol NADPH oxidized/min/mg protein
same,"Selenium-dependent glutathione peroxidase activity, Plasma",[5]; [14],0.78 0.14 μmol NADPH oxidized/min/mg protein
same,"Selenium-dependent glutathione peroxidase activity, Colon","[5]; 25 ppm in diet 5 wk, colonic mucosa, Mean ± SE (n = 6)",0.56 0.14 μmol NADPH oxidized/min/mg protein
same,"Selenium-dependent glutathione peroxidase activity, Small intestine","[5]; 25 ppm in diet 5 wk, small intestinal mucosa, Mean ± SE (n = 6)",0.71 0.13 μmol NADPH oxidized/min/mg protein
same,Selenium-dependent glutathione peroxidase activity (in words),"[5]; kidney, colon and small intestine","increase in selenium-dependent glutathione peroxidase activity in the kidney, colon, and small intestine; also recorded: significant increase in the enzyme activity in kidney and colonic and small intestinal mucosae of animals fed the BSC diet compared to that in those animals fed the BTC diet and control diet"
same,Selenium-dependent glutathione peroxidase activity (in words),[5]; liver and plasma,no effect on this enzyme activity in the liver and plasma; also recorded: not affected
same,Body weights of animals fed experimental vs control diets,"[6]; AOM or vehicle treated, in words",comparable
same,"Body wt, Initial (Wk 0)",[6]; AOM treated,40 ± 4 g
same,"Body wt, wk 4",[6]; AOM treated,174 ± 9 g
same,"Body wt, wk 8",[6]; AOM treated,279 ± 15 g
same,"Body wt, wk 16",[6]; AOM treated,348 ± 16 g
same,"Body wt, wk 22",[6]; AOM treated,390 ± 21 g
same,"Body wt, wk 30",[6]; AOM treated,430 ± 20 g
same,"Body wt, wk 37 (at termination)",[6]; AOM treated,449 ± 22 g
same,"Body wt, Initial (Wk 0)",[6]; Vehicle treated,41 ± 4 g
same,"Body wt, wk 4",[6]; Vehicle treated,179 ± 12 g
same,"Body wt, wk 8",[6]; Vehicle treated,284 ± 19 g
same,"Body wt, wk 16",[6]; Vehicle treated,364 ± 19 g
same,"Body wt, wk 22",[6]; Vehicle treated,402 ± 20 g
same,"Body wt, wk 30",[6]; Vehicle treated,448 ± 26 g
same,"Body wt, wk 37 (at termination)",[6]; Vehicle treated,467 ± 21 g
same,"Colon tumor incidence, Adenocarcinoma",[7]; [12],11 % of animals with tumors
same,"Colon tumor incidence, Adenoma",[7]; [12],44 % of animals with tumors
same,"Colon tumor incidence, Total (adenomas plus adenocarcinomas)",[7]; [12],48 % of animals with tumors
same,"Number of animals with colon tumors, Adenocarcinoma",[7]; [13],3 number of animals
same,"Number of animals with colon tumors, Adenoma",[7]; [13],12 number of animals
same,"Number of animals with colon tumors, Total",[7]; [13],13 number of animals
same,"Colon tumor multiplicity, Adenocarcinoma","[7]; 25 ppm in diet, Mean ± SD",0.11 ± 0.3 no. of tumors/animals
same,"Colon tumor multiplicity, Adenoma","[7]; 25 ppm in diet, Mean ± SD",0.70 ± 0.9 no. of tumors/animals
same,"Colon tumor multiplicity, Total","[7]; 25 ppm in diet, Mean ± SD",0.81 ± 1.0 no. of tumors/animals
same,"Number of tumors per group, colon Adenocarcinoma","[7]; 25 ppm in diet, in parentheses",3 number of tumors per group
same,Inhibition of AOM-induced colon tumors (in words),[7]; initiation phase of carcinogenesis,inhibits AOM-induced tumors in the colon; also recorded: inhibited colon tumors during the initiation phase of carcinogenesis
same,Incidence of adenocarcinomas of the colon (in words),[7]; vs control diet,significantly lower in rats fed the BSC diet than in those fed the control diet; also recorded: significantly inhibits
same,Incidence of total colon tumors (in words),[7]; vs control diet,significantly lower in rats fed the BSC diet than in those fed the control diet
same,Number of colon adenocarcinomas per animal (in words),[7]; vs control diet and BTC diet,significally inhibited in animals fed the BSC diet compared to those fed the control diet and BTC diet; also recorded: significantly inhibits
same,Number of total colon tumors per animal (in words),[7]; vs control diet and BTC diet,significally inhibited in animals fed the BSC diet compared to those fed the control diet and BTC diet
same,Multiplicity of colon adenomas (in words),"[7]; vs control diet and BTC diet, not statistically significant",slight inhibition of multiplicity of adenomas in the BSC diet as compared to the control diet and BTC diet
same,Non-selenium-dependent glutathione peroxidase activity (in words),[8],no differences in the activity of non-selenium-dependent glutathione peroxidase activity among the dietary groups
same,Inhibition of benzo(a)pyrene-induced forestomach tumors,[9],effective inhibitors of benzo(a) pyrene-induced forestomach tumors in mice
same,approximate LD50 in humans,[10],~3025
"COc1ccc([SeH])cc1 [MBS, p-methoxybenzenenselenol, reference compound]",Inhibition of AOM-induced carcinogenesis,[11],"inhibited azoxymethane (""AOM"")-induced colon, kidney, and hepatocarcinogenesis in rats"
same,Inhibition of benzo(a)pyrene-induced forestomach tumors,[9],effective inhibitors of benzo(a) pyrene-induced forestomach tumors in mice
